In PMC12073402, “A Selective MAP3K1 Inhibitor Facilitates Discovery of NPM1 as a Member of the Network” (Molecules, 2025):

Legend:
Test in all cases: KiNativ kinome profiling in PANC-1 lysate
Assay type in all cases: binding
[1] = target: T1, MAP4K3 (Homo sapiens, UniProt Q8IVH8)
T1 construct: endogenous in cells; host or cells: PANC-1 cell lysate
Description: (§1) To assess target engagement and selectivity, we opted to conduct a kinome screen (KiNativ) in PANC-1 cell lysates. This chemical proteomics (chemoproteomics) methodology allows for the evaluation of small-molecule binding to protein kinases in native systems such as cell lysates. KiNativ utilizes a soluble chemical probe comprising ATP linked to biotin through an acyl-phosphate bond. The probe covalently modifies conserved lysine residues found in the ATP binding site of essentially all protein kinases (Figure 2A). To profile a kinase inhibitor, cell lysates are treated with a vehicle control or inhibitor prior to addition of the desthiobiotin ATP probe. The ATP probe occupies the ATP binding site in the kinase, which enables the conserved lysines to be biotinylated. […] The cell lysates are digested with a protease (trypsin), biotinylated peptides are affinity-enriched on streptavidin beads, and the labeled peptides are analyzed by liquid chromatography–tandem MS (Figure 2B). If an inhibitor binds to a kinase, it competes with the ATP, thus resulting in a loss of that kinase-associated peptide signal, allowing for the quantitative measurement of inhibitor binding. Unlike recombinant enzyme assays, KiNativ IC50 values are a direct measure of active site binding instead of enzymatic activity.
(§2) Kinome profiling quantified the activity of 51-106 against >300 kinases in the PANC-1 cells. The results summarized in Figure 2C are the average of duplicate control and duplicate treated samples with 5 μM of 51-106 or DMSO.
(§3) KiNativ assay with 51-106.
(§4) ATP Loop: ATP binding loop
(§5) Activation Loop: Activation loop
(§6) ATP: ATP site in non-canonical kinase (e.g. lipid kinase)
(§7) Protein Kinase Domain: Other lysine within kinase domain, possibly not in ATP binding site
(§8) Other: Labeling of residue outside of the protein kinase domain, possibly not in ATP binding site
(§9) No change. NB = No Binding (≤ 0)
(§10) >100% increase in MS signal (>2 fold increase)
(§11) Data points inhibited […] & not considered significant are left uncolored
(§12) Note: This KiNativ dataset is the result of an analysis of duplicate treated samples and control samples.
(§13) The % changes in MS signals being reported are statistically significant (Student T -test score < 0.04)

[2] = target: T2, IKKa (Homo sapiens, UniProt O15111); conditions: Lys2
T2 construct: we opted to conduct a kinome screen (KiNativ) in PANC-1 cell lysates; endogenous in cells; host or cells: PANC-1 cell lysate
Description: as §1, §2, §3, §4, §5, §6, §7, §8, §9, §10, §11, §12, §13

[3] = target: T3, TLK2 (Homo sapiens, UniProt Q86UE8)
T3 construct: endogenous in cells; host or cells: PANC-1 cell lysate
Description: as §1, §2, §3, §4, §5, §6, §7, §8, §9, §10, §11, §12, §13

[4] = target: T4, ROCK1 (Homo sapiens, UniProt Q13464); conditions: Other
T4 construct: endogenous in cells; host or cells: PANC-1 cell lysate
Description: as §1, §2, §3, §4, §5, §6, §7, §8, §9, §10, §11, §12, §13

[5] = target: T5, PIK3C2B (Homo sapiens, UniProt O00750); conditions: ATP
T5 construct: endogenous in cells; host or cells: PANC-1 cell lysate
Description: as §1, §2, §3, §4, §5, §6, §7, §8, §9, §10, §11, §12, §13

[6] = system: RSK1 domain1, RSK2 domain1, RSK3 domain1; conditions: 5 µM; Lys2; DLKPENILLDEEGHIK
Description: as §1, §2, §3, §4, §5, §6, §7, §8, §9, §10, §11, §12, §13

[7] = target: T6, ARAF (Homo sapiens, UniProt P10398); conditions: Lys2
T6 construct: endogenous in cells; host or cells: PANC-1 cell lysate
Description: as §1, §2, §3, §4, §5, §6, §7, §8, §9, §10, §11, §12, §13

[8] = target: T7, IRE1 (Homo sapiens, UniProt O75460)
T7 construct: we opted to conduct a kinome screen (KiNativ) in PANC-1 cell lysates; endogenous in cells; host or cells: PANC-1 cell lysate
T7 sequence (O75460 19-977): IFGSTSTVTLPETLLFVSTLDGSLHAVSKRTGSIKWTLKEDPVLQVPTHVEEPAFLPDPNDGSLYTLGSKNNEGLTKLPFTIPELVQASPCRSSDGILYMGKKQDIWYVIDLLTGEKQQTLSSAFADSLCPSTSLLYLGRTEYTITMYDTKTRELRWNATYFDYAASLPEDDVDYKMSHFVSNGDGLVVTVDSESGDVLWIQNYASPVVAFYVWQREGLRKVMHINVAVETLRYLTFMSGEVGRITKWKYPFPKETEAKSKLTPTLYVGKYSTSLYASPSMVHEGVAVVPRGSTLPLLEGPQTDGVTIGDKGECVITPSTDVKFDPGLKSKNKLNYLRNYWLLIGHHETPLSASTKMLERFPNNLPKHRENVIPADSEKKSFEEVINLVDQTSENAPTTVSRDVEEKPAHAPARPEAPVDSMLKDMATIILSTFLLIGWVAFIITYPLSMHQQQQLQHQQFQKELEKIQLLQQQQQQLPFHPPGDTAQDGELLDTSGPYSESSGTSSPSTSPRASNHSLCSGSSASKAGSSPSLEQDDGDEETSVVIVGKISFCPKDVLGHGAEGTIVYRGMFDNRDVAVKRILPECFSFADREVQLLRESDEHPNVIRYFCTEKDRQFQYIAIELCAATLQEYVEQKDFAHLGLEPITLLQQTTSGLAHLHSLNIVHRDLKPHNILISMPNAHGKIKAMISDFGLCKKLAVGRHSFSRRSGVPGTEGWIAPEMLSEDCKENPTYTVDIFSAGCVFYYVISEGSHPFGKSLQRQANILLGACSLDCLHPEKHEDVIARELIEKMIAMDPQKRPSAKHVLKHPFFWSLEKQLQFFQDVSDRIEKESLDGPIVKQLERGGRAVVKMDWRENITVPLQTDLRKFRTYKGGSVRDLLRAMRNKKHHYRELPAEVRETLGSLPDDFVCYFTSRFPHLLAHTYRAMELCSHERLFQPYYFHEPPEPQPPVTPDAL
Description: as §1, §2, §3, §4, §5, §6, §7, §8, §9, §10, §11, §12, §13

[9] = target: T8, LOK (Homo sapiens, UniProt O94804)
T8 construct: we opted to conduct a kinome screen (KiNativ) in PANC-1 cell lysates; endogenous in cells; host or cells: PANC-1 cell lysate
T8 sequence (O94804 whole entry): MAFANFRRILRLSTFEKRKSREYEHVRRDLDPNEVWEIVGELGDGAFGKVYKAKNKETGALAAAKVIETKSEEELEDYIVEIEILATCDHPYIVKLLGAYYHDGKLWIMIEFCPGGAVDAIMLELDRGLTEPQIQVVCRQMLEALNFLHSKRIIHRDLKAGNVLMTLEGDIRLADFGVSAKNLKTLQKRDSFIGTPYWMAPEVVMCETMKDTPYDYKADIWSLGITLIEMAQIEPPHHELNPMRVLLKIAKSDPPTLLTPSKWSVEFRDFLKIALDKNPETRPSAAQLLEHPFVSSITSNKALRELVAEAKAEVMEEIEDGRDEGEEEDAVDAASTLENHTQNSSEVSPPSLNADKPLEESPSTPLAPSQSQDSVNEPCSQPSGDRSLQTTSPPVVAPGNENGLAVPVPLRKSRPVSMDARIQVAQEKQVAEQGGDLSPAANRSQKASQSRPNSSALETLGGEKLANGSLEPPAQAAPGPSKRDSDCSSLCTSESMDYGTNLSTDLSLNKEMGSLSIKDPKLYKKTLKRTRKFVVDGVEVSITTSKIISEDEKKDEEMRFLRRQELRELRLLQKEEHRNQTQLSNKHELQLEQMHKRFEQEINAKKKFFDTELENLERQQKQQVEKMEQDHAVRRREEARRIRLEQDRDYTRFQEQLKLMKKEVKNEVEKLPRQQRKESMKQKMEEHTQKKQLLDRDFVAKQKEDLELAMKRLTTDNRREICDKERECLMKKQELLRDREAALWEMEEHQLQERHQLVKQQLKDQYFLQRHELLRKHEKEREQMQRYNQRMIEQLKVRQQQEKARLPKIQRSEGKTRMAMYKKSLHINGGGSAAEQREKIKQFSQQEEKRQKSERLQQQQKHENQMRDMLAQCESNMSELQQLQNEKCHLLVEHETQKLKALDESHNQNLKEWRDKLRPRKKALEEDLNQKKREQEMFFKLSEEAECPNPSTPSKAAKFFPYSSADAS
Description: as §1, §2, §3, §4, §5, §6, §7, §8, §9, §10, §11, §12, §13

[10] = target: T9, GSK3A (Homo sapiens, UniProt P49840); conditions: Lys2
T9 construct: we opted to conduct a kinome screen (KiNativ) in PANC-1 cell lysates; endogenous in cells; host or cells: PANC-1 cell lysate
Description: as §1, §2, §3, §4, §5, §6, §7, §8, §9, §10, §11, §12, §13

[11] = target: T10, TAK1 (Homo sapiens, UniProt O43318); conditions: Lys2
T10 construct: endogenous in cells; host or cells: PANC-1 cell lysate
Description: as §1, §2, §3, §4, §5, §6, §7, §8, §9, §10, §11, §12, §13

[12] = target: T11, PKCd (Homo sapiens, UniProt Q05655)
T11 construct: endogenous in cells; host or cells: PANC-1 cell lysate
T11 sequence (Q05655 whole entry): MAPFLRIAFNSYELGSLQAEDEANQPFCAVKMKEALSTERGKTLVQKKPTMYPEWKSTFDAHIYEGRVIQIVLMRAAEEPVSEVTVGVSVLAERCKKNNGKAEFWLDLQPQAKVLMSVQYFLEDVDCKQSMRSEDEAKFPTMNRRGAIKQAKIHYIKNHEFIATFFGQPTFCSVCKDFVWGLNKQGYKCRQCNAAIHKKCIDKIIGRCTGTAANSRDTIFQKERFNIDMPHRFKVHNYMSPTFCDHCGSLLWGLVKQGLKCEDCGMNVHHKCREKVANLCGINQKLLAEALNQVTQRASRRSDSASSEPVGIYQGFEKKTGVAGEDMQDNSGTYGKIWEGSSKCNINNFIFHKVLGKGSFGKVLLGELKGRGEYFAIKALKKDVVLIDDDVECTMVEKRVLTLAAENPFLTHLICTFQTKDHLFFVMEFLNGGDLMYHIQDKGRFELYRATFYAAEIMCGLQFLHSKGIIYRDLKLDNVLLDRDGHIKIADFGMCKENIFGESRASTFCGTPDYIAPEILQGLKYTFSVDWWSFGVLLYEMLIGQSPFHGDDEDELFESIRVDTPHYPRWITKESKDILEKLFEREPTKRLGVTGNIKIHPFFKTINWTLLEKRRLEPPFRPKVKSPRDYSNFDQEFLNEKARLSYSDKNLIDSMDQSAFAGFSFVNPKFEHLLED
Description: as §1, §2, §3, §4, §5, §6, §7, §8, §9, §10, §11, §12, §13

[13] = target: T12, MARK4 (Homo sapiens, UniProt Q96L34)
T12 construct: endogenous in cells; host or cells: PANC-1
T12 sequence (Q96L34 whole entry): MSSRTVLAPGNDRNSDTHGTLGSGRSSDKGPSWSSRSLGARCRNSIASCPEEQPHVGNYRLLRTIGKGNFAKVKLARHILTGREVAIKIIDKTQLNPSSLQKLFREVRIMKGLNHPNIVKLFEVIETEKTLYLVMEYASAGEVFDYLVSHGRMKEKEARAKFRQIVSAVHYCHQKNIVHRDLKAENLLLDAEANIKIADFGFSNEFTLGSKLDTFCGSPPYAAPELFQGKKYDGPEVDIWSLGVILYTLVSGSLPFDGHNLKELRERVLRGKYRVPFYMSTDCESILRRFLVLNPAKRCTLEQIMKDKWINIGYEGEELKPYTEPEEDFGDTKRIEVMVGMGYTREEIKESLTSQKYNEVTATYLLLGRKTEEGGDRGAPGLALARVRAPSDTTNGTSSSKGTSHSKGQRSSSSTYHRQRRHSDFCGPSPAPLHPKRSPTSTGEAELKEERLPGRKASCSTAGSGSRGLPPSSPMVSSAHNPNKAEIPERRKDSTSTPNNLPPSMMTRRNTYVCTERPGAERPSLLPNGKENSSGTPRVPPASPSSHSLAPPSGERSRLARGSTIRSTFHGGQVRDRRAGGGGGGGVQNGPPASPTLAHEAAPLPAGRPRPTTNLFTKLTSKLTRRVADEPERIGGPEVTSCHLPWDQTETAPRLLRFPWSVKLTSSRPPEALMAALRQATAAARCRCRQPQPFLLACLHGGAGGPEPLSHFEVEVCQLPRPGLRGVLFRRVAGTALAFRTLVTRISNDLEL
Description: as §1, §2, §3, §4, §5, §6, §7, §8, §9, §10, §11, §12, §13

[14] = target: T13, RSK1 domain2 (Homo sapiens, UniProt Q15418); conditions: Lys2
T13 construct: endogenous in cells; host or cells: PANC-1 cell lysate
Description: as §1, §2, §3, §4, §5, §6, §7, §8, §9, §10, §11, §12, §13

[15] = target: T14, HCK (Homo sapiens, UniProt P08631)
T14 construct: we opted to conduct a kinome screen (KiNativ) in PANC-1 cell lysates; endogenous in cells; host or cells: PANC-1 cell lysate
T14 sequence (P08631 whole entry): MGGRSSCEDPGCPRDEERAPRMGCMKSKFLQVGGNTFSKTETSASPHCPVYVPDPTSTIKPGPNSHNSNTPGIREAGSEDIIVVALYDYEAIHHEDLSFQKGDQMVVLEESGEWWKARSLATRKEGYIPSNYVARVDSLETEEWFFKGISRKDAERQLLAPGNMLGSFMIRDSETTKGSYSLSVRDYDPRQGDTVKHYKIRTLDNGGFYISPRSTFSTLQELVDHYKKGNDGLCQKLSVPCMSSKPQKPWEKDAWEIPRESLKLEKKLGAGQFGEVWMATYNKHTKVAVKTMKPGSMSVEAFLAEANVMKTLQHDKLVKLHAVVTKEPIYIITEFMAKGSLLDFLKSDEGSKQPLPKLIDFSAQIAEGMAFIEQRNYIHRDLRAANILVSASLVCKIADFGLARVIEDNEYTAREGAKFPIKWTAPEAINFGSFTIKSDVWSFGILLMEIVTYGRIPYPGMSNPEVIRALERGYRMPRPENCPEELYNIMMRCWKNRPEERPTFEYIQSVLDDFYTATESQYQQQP
Description: as §1, §2, §3, §4, §5, §6, §7, §8, §9, §10, §11, §12, §13

[16] = target: T15, PI4K2B (Homo sapiens, UniProt Q8TCG2); conditions: ATP
T15 construct: endogenous in cells; host or cells: PANC-1 cell lysate
Description: as §1, §2, §3, §4, §5, §6, §7, §8, §9, §10, §11, §12, §13

[17] = target: T16, MAP2K3 (Homo sapiens, UniProt P46734)
T16 construct: endogenous in cells; host or cells: PANC-1 cell lysate
T16 sequence (P46734 1-347): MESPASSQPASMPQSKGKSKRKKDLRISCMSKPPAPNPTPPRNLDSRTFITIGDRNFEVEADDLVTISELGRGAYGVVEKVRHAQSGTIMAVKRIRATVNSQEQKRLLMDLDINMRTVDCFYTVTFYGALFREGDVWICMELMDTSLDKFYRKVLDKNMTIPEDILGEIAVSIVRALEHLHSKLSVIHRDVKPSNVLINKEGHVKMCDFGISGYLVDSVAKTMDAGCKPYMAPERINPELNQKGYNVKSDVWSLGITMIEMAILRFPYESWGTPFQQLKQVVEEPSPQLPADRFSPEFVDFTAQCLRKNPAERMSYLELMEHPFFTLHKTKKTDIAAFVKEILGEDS
Description: as §1, §2, §3, §4, §5, §6, §7, §8, §9, §10, §11, §12, §13

[18] = system: MARK1, MARK2; conditions: 5 µM; Lys1; EVAVKIIDK
Description: as §1, §2, §3, §4, §5, §6, §7, §8, §9, §10, §11, §12, §13

[19] = target: T17, STLK6 (Homo sapiens, UniProt Q9C0K7); conditions: Lys1
T17 construct: endogenous in cells; host or cells: PANC-1 cell lysate
Description: as §1, §2, §3, §4, §5, §6, §7, §8, §9, §10, §11, §12, §13

[20] = target: T18, MST2 (Homo sapiens, UniProt Q13188); conditions: Lys1
T18 construct: endogenous in cells; host or cells: PANC-1
Description: as §1, §2, §3, §4, §5, §6, §7, §8, §9, §10, §11, §12, §13

[21] = target: T19, DGKA (Homo sapiens, UniProt P23743); conditions: ATP
T19 construct: endogenous in cells; host or cells: PANC-1 lysate
Description: as §1, §2, §3, §4, §5, §6, §7, §8, §9, §10, §11, §12, §13

T1 sequence (Q8IVH8 whole entry): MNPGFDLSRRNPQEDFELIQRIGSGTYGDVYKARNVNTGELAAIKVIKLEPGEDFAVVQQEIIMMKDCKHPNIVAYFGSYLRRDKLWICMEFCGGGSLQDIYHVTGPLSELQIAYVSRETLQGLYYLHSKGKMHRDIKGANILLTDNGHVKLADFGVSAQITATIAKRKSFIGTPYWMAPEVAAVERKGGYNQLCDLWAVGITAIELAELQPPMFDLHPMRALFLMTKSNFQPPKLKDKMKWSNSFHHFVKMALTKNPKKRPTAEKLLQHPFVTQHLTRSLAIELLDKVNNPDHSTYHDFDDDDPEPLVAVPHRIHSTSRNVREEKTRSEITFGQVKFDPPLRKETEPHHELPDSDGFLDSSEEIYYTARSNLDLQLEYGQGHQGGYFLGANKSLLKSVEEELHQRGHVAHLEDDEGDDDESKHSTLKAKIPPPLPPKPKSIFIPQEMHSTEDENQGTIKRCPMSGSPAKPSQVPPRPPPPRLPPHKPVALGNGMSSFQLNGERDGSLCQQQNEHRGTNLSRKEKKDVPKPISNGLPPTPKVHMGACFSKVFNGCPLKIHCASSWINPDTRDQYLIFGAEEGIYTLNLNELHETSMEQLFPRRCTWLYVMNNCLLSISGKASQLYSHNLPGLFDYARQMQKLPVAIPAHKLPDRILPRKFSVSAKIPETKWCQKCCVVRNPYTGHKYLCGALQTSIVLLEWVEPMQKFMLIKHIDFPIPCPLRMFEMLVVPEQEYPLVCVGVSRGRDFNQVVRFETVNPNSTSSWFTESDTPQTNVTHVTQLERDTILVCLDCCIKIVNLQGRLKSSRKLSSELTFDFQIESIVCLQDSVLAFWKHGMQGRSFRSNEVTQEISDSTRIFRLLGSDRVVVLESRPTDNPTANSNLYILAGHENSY

Cn1cc(-c2cnc3ccc(NC(=O)Nc4ccc(F)c(C(F)(F)F)c4)cc3n2)cn1 [51-106, 1-(4-Fluoro-3-(trifluoromethyl)phenyl)-3-(3-(1-methyl-1H-pyrazol-4-yl)quinoxalin-6-yl)urea]
inhibition at 5 µM ([1]; Lys1, NVNTGELAAIKVIK): 4.7%
inhibition at 5 µM ([1]; Lys2, DIKGANILLTDNGHVK): ≤ 0%
inhibition at 5 µM [2]: ≤ 0%
inhibition at 5 µM ([3]; Lys1, YVAVKIHQLNK): 1.2%
inhibition at 5 µM ([3]; Lys2, YLNEIKPPIIHYDLKPGNILLVNGTACGEIK): 1.7%
inhibition at 5 µM [4]: ≤ 0%
inhibition at 5 µM [5]: 2.9%
% Inhibition [6]: NB (NB = No Binding (≤ 0))
inhibition at 5 µM [7]: ≤ 0%
inhibition at 5 µM ([8]; Lys1, GMFDNRDVAVKR): 8.9%
inhibition at 5 µM ([8]; Lys2, DLKPHNILISMPNAHGK): ≤ 0%
% Inhibition ([9]; 5 µM, Lys1, NKETGALAAAKVIETK): NB (NB = No Binding (≤ 0))
inhibition at 5 µM ([9]; Lys2, […]): ≤ 0%
inhibition at 5 µM [10]: ≤ 0%
inhibition at 5 µM [11]: ≤ 0%
inhibition at 5 µM ([12]; Lys2, DLKLDNVLLDR): 0.4%
inhibition at 5 µM ([12]; Other, KPTMYPEWK): ≤ 0%
inhibition at 5 µM ([13]; Lys1, EVAIKIIDKTQLNPSSLQK): ≤ 0%
inhibition at 5 µM ([13]; Lys2, DLKAENLLLDAEANIK): 10.3%
inhibition at 5 µM [14]: 6.9%
% Inhibition ([15]; 5 µM, ATP Loop, EGAKFPIKWTAPEAINFGSFTIK): NB (NB = No Binding (≤ 0))
inhibition at 5 µM ([15]; Lys1, […]): ≤ 0%
inhibition at 5 µM [16]: 6.4%
inhibition at 5 µM ([17]; ATP Loop, MCDFGISGYLVDSVAKTMDAGCKPYMAPER): ≤ 0%
inhibition at 5 µM ([17]; Lys1, HAQSGTIMAVKR): ≤ 0%
inhibition at 5 µM ([17]; Lys2, DVKPSNVLINK): 18.5%
% Inhibition [18]: NB (NB = No Binding (≤ 0))
inhibition at 5 µM [19]: 5.8%
inhibition at 5 µM [20]: 0.8%
inhibition at 5 µM [21]: ≤ 0%
